Patent publication US9133139B2, “Fluoroalkyl-1,4-benzodiazepinone compounds” (BRISTOL-MYERS SQUIBB COMPANY, priority 2012, dated 2015)

How the values were obtained:
[1] = Human metabolic stability half-life assay (liver microsomes); assay type: in vitro ADME; conditions: pH 7.4, human liver microsomes, CYP-mediated (NADPH-dependent), 0.5 μM compound, 45-minute time course, read-out: HLM (t1/2, min)
Method: Metabolic Stability Half-Life Panel
Result Interpretation Guideline
Incubation with Liver Microsomes
Sample Analysis—Instrumentation

TALL-1 = assay: Human Tumor Xenograft Models in Mice, TALL-1; assay type: in vivo; conditions: for Antitumor Activity in TALL-1 (LCK), QD dosing: oral, TALL-1 xenograft in NOD-SCID mice; for antitumor activity with oral administration (PO): Human Tumor Xenograft Models in mice
Method: Human Tumor Xenograft Models in Mice
Mice were fed food and water ad libitum.
Preclinical Chemotherapy Trials
When death occurred, the day of death was recorded.
In Vivo Antitumor Activity

human Notch 1 = assay: Notch-CBF1 Transactivation Assay (luciferase reporter, transfected HeLa cells), Notch 1; assay type: cell-based; conditions: read-out: Notch 1 (IC50); HeLa cells transfected with truncated Notch 1 and CBF1 luciferase reporter, 18 hours incubation
From the text: Notch-CBF1 Transactivation Assay
The Notch-CBF1 (C-promoter binding factor I) cell based transactivation assay is based on the ability of the released Notch intracellular domain fragments (NICDs) to function as transcription factors in conjunction with CBF1 and other nuclear factors. Luciferase assays were used to measure the antagonism of Notch-CBF1 transcriptional activity. HeLa cervical cancer cells are transiently co-transfected with pCDNA3.1/Hygro plasmids containing truncated Notch 1, Notch 2, Notch 3, or Notch 4 receptors and a PGL3 luciferase reporter vector containing 4 copies of CBF1 binding site. The cells were then tested for Notch-CBF1 activity in the absence or presence of test compounds. HeLa cells, maintained in DMEM (high glucose with HEPES), 1× glutamine/penicillin/streptomycin and 10% Fetal Bovine serum, were transiently transfected in a T175 Flask (4.5×10^6 cells/flask) using the Monster Transfection Kit (Minis #MIR2906) according to manufacturers specifications. Table 2 denotes respective DNA quantity for the transfections.
Assay media (5 μL) containing test compounds in final concentrations ranging from 5 μM to 8.4×10^−5 μM (3 fold serial dilutions) were added to the cells and the cell plates were then incubated for 18 hours at 37° C. and 5% CO2. Control wells contained DMSO vehicle (total counts) or 0.5 μM of an in-house small molecule inhibitor (background counts). Duplicates were used for each sample. Luciferase activity was measured after a 20-minute incubation with 50 μl STEADY-GLO® luciferase reagents according to manufacturer's specifications (Promega, Cat. #E2550) and analyzed by Envision plate reader (PerkinElmer, Boston, Mass.).
The antagonist effect of compounds was expressed as 100×[1−(average sample−average background)/(average total−average background)] where sample is the luciferase activity in the presence of test compound, background is equal to the luciferase activity in the presence of the small molecule inhibitor control and the total is signal induced in DMSO wells.

SMILES	half-life at 0.5 μM [1]	further results
CCC[C@H](C(N)=O)[C@@H](CC(C)C)C(=O)N[C@H]1N=C(c2ccccc2)c2ccccc2N(C)C1=O [Comparative Compound 37, reference compound]	≤ 8 min	
C=CC[C@H](C(N)=O)[C@@H](CC(C)C)C(=O)N[C@H]1N=C(c2ccccc2)c2cc(Cl)ccc2N(C)C1=O [Comparative Compound 38, reference compound]	≤ 8 min	
CCCC[C@H](C(N)=O)[C@@H](CC(C)C)C(=O)N[C@H]1N=C(c2ccc(Cl)cc2)c2ccccc2N(C)C1=O [Comparative Compound 39, reference compound]	≤ 8 min	
C=CC[C@H](C(N)=O)[C@@H](CC(C)C)C(=O)N[C@H]1N=C(c2ccccc2)c2ccccc2N(CCC)C1=O [Comparative Compound 40, reference compound]	≤ 8 min	
CN1C(=O)[C@@H](NC(=O)[C@H](CCC(F)(F)F)[C@@H](C(N)=O)c2ccccc2)N=C(c2ccccc2)c2ccccc21 [Example 1, (2R,3R)—N-((3S)-1-Methyl-2-oxo-5-phenyl-2,3-dihydro-1H-1,4-benzodiazepin-3-yl)-3-phenyl-2-(3,3,3-trifluoropropyl)succinamide]		Antitumor Activity in TALL-1 (LCK), QD dosing (TALL-1; Dose 24 (unit not given)): 3.5 LCK; antitumor activity with oral administration (PO) (TALL-1): showed antitumor activity
Cc1nocc1[C@H](C(N)=O)[C@@H](CCC(F)(F)F)C(=O)N[C@H]1N=C(c2ccccc2)c2ccccc2N(C)C1=O [Example 6, (2R,3R)—N1-((S)-1-Methyl-2-oxo-5-phenyl-2,3-dihydro-1H-benzo[e][1,4]diazepin-3-yl)-3-(3-methylisoxazol-4-yl)-2-(3,3,3-trifluoropropyl)succinamide]	≥ 30 min	
Cc1nocc1[C@H](C(N)=O)[C@@H](CCC(F)(F)F)C(=O)N[C@H]1N=C(c2ccccc2)c2ccccc2NC1=O [Example 9]	≥ 30 min	
Cc1nocc1[C@H](C(N)=O)[C@@H](CCC(F)(F)F)C(=O)N[C@H]1N=C(c2ccccc2)c2ccccc2N(c2ccccn2)C1=O [Example 11, (2R,3R)-3-(3-Methyl-4-isoxazolyl)-N-((3S)-2-oxo-5-phenyl-1-(2-pyridinyl)-2,3-dihydro-1H-1,4-benzodiazepin-3-yl)-2-(3,3,3-trifluoropropyl)succinamide]	≥ 30 min	IC50 (human Notch 1): 12.9 nM
NC(=O)[C@@H](c1ccccc1)[C@@H](CCC(F)(F)F)C(=O)N[C@H]1N=C(c2ccccc2)c2ccccc2N(c2ccccn2)C1=O [Example 12, (2R,3R)—N-((3S)-2-Oxo-5-phenyl-1-(2-pyridinyl)-2,3-dihydro-1H-1,4-benzodiazepin-3-yl)-3-phenyl-2-(3,3,3-trifluoropropyl)succinamide]		IC50 (human Notch 1): 13.6 nM
Cc1nocc1[C@H](C(N)=O)[C@@H](CCC(F)(F)F)C(=O)N[C@H]1N=C(c2ccccc2)c2cc3c(cc2NC1=O)OCO3 [Example 13, (2R,3R)-3-(3-Methyl-4-isoxazolyl)-N-((7S)-6-oxo-9-phenyl-6,7-dihydro-5H-[1,3]dioxolo[4,5-h][1,4]benzodiazepin-7-yl)-2-(3,3,3-trifluoropropyl)succinamide]	≥ 30 min	
COc1ccc(N2C(=O)[C@@H](NC(=O)[C@H](CCC(F)(F)F)[C@@H](C(N)=O)c3conc3C)N=C(c3ccccc3)c3ccccc32)nc1 [Example 14, (2R,3R)—N-((3S)-1-(5-Methoxy-2-pyridinyl)-2-oxo-5-phenyl-2,3-dihydro-1H-1,4-benzodiazepin-3-yl)-3-(3-methyl-4-isoxazolyl)-2-(3,3,3-trifluoropropyl)succinamide]	≥ 30 min	
COc1ccc(N2C(=O)[C@@H](NC(=O)[C@H](CCC(F)(F)F)[C@@H](C(N)=O)c3ccccc3)N=C(c3ccccc3)c3ccccc32)nc1 [Example 15, (2R,3R)—N-((3S)-1-(5-Methoxy-2-pyridinyl)-2-oxo-5-phenyl-2,3-dihydro-1H-1,4-benzodiazepin-3-yl)-3-phenyl-2-(3,3,3-trifluoropropyl)succinamide]		IC50 (human Notch 1): 17.8 nM
COc1cccc(N2C(=O)[C@@H](NC(=O)[C@H](CCC(F)(F)F)[C@@H](C(N)=O)c3ccccc3)N=C(c3ccccc3)c3ccccc32)n1 [Example 16, (2R,3R)—N-((3S)-1-(6-Methoxy-2-pyridinyl)-2-oxo-5-phenyl-2,3-dihydro-1H-1,4-benzodiazepin-3-yl)-3-phenyl-2-(3,3,3-trifluoropropyl)succinamide]		IC50 (human Notch 1): 16.4 nM
Cc1nocc1[C@H](C(N)=O)[C@@H](CCC(F)(F)F)C(=O)N[C@H]1N=C(c2ccccc2)c2cccc(Cl)c2NC1=O [Example 17, (2R,3R)—N1-((S)-9-Chloro-2-oxo-5-phenyl-2,3-dihydro-1H-benzo[e][1,4]diazepin-3-yl)-3-(3-methylisoxazol-4-yl)-2-(3,3,3-trifluoropropyl)succinamide]	≥ 30 min	
COc1cccc2c1NC(=O)[C@@H](NC(=O)[C@H](CCC(F)(F)F)[C@@H](C(N)=O)c1conc1C)N=C2c1ccccc1 [Example 20, (2R,3R)—N1-((S)-9-Methoxy-2-oxo-5-phenyl-2,3-dihydro-1H-benzo[e][1,4]diazepin-3-yl)-3-(3-methylisoxazol-4-yl)-2-(3,3,3-trifluoropropyl)succinamide]	≥ 30 min	
COc1cccc2c1NC(=O)[C@@H](NC(=O)[C@H](CCC(F)(F)F)[C@@H](C(N)=O)c1ccccc1)N=C2c1ccccc1 [Example 21, (2R,3R)—N1-((S)-9-Methoxy-2-oxo-5-phenyl-2,3-dihydro-1H-benzo[e][1,4]diazepin-3-yl)-3-phenyl-2-(3,3,3-trifluoropropyl)succinamide]	≥ 30 min	Antitumor Activity in TALL-1 (LCK), QD dosing (TALL-1; Dose 40 (unit not given)): 2.7 LCK; antitumor activity with oral administration (PO) (TALL-1): showed antitumor activity
Cc1cccc2c1NC(=O)[C@@H](NC(=O)[C@H](CCC(F)(F)F)[C@@H](C(N)=O)c1ccccc1)N=C2c1ccc(F)cc1 [Example 27, (2R,3R)—N1-((S)-5-(4-Fluorophenyl)-9-methyl-2-oxo-2,3-dihydro-1H-benzo[e][1,4]diazepin-3-yl)-3-phenyl-2-(3,3,3-trifluoropropyl)succinamide]	≥ 30 min	IC50 (human Notch 1): 15.3 nM
Cc1cccc2c1NC(=O)[C@@H](NC(=O)[C@H](CCC(F)(F)F)[C@@H](C(N)=O)c1conc1C)N=C2c1cccc(C(F)(F)F)c1 [Example 28, (2R,3R)—N1-((S)-9-Methyl-2-oxo-5-(3-(trifluoromethyl)phenyl)-2,3-dihydro-1H-benzo[e][1,4]diazepin-3-yl)-3-(3-methylisoxazol-4-yl)-2-(3,3,3-trifluoropropyl)succinamide]	≥ 30 min	
Cc1cccc2c1NC(=O)[C@@H](NC(=O)[C@H](CCC(F)(F)F)[C@@H](C(N)=O)c1ccccc1)N=C2c1cccc(C(F)(F)F)c1 [Example 29, (2R,3R)—N1-((S)-9-Methyl-2-oxo-5-(3-(trifluoromethyl)phenyl)-2,3-dihydro-1H-benzo[e][1,4]diazepin-3-yl)-3-phenyl-2-(3,3,3-trifluoropropyl)succinamide]	≥ 30 min	
Cc1cccc2c1NC(=O)[C@@H](NC(=O)[C@H](CCC(F)(F)F)[C@@H](C(N)=O)c1conc1C)N=C2c1cccc(Cl)c1 [Example 32, (2R,3R)—N1-((S)-5-(3-Chlorophenyl)-9-methyl-2-oxo-2,3-dihydro-1H-benzo[e][1,4]diazepin-3-yl)-3-(3-methylisoxazol-4-yl)-2-(3,3,3-trifluoropropyl)succinamide]	≥ 30 min	
Cc1cccc2c1NC(=O)[C@@H](NC(=O)[C@H](CCC(F)(F)F)[C@@H](C(N)=O)c1ccccc1)N=C2c1cccc(C(F)F)c1 [Example 34, (2R,3R)—N1-((S)-5-(3-(Difluoromethyl)phenyl)-9-methyl-2-oxo-2,3-dihydro-1H-benzo[e][1,4]diazepin-3-yl)-3-phenyl-2-(3,3,3-trifluoropropyl)succinamide]	≥ 30 min	
NC(=O)[C@@H](c1ccccc1)[C@@H](CCC(F)(F)F)C(=O)N[C@H]1N=C(c2cccc(F)c2)c2cccc(OC3CC3)c2NC1=O [Example 35, (2R,3R)—N1-((S)-9-Cyclopropoxy-5-(3-fluorophenyl)-2-oxo-2,3-dihydro-1H-benzo[e][1,4]diazepin-3-yl)-3-phenyl-2-(3,3,3-trifluoropropyl)succinamide]	≥ 30 min	
COc1cccc2c1NC(=O)[C@@H](NC(=O)[C@H](CCC(F)(F)F)[C@@H](C(N)=O)c1ccc(Cl)cc1)N=C2c1ccccc1 [Example 36, (2R,3R)-3-(4-Chlorophenyl)-N1-((S)-9-methoxy-2-oxo-5-phenyl-2,3-dihydro-1H-benzo[e][1,4]diazepin-3-yl)-2-(3,3,3-trifluoropropyl)succinamide]	≥ 30 min	
